The text below walks through data of ChEMBL document CHEMBL4507293 (2021).

Assay [1] has as its target T1, cAMP and cAMP-inhibited cGMP 3',5'-cyclic phosphodiesterase 10A (Homo sapiens, UniProt Q9Y233). Briefly: Biochemical assay (PDE10A).
In assay [2] the target is Serine/threonine-protein kinase ULK1 (Homo sapiens) (UniProt O75385). The note with it: Compound concentration 100.0 nM.
Assay [3] addresses Acetylcholine receptor subunit alpha (Homo sapiens) (UniProt P02708). Briefly: Inhibition of Nicotinic Acetylcholine D1, Bungarotoxin at 10 µM in the Eurofins-Panlabs radioligand binding assay (Eurofins_assay_258700). The note with it: Compound concentration 10.0 uM.
The target of assay [4] is Platelet-activating factor receptor (Homo sapiens) (UniProt P25105). Nature of the assay: Inhibition of Platelet Activating Factor (PAF) at 10 µM in the Eurofins-Panlabs radioligand binding assay (Eurofins_assay_265010). The note with it: Compound concentration 10.0 uM.
In assay [5] the target is C-X-C chemokine receptor type 2 (Homo sapiens) (UniProt P25025). Nature of the assay: Inhibition of Chemokine CXCR2 (IL-8RB) at 10 µM in the Eurofins-Panlabs radioligand binding assay (Eurofins_assay_244500). Particulars: Compound concentration 10.0 uM.
The species named for a further assay is Rattus norvegicus. Nature of the assay: Inhibition of Glycine, Strychnine-Sensitive at 10 µM in the Eurofins-Panlabs radioligand binding assay (Eurofins_assay_239000). The note with it: Compound concentration 10.0 uM.
Assay [6] deals with Melanocortin receptor 5 (Homo sapiens) (UniProt P33032). Nature of the assay: Inhibition of Melanocortin MC5 at 10 µM in the Eurofins-Panlabs radioligand binding assay (Eurofins_assay_251400). The note with it: Compound concentration 10.0 uM. The arrangement: ligand concentration 0.035 nM.
For assay [7], the target named is T2, Muscarinic acetylcholine receptor M5 (Homo sapiens) (UniProt P08912).
T2 sequence (whole entry): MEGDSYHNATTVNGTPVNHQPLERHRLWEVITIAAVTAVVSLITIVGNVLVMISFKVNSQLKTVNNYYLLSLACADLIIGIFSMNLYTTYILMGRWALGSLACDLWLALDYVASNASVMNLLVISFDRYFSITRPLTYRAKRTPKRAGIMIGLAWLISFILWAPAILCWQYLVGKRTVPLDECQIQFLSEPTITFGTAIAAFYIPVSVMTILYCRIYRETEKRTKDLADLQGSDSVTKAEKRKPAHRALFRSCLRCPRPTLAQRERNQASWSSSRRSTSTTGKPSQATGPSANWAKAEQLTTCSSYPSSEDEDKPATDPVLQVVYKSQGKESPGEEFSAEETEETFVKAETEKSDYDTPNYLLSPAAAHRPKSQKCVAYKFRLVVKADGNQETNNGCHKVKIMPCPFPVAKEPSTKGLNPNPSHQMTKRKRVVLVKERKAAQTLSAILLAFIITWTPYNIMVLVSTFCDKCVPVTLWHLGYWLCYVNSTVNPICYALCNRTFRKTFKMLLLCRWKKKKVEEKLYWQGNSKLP
Briefly: Inhibition of Muscarinic M5 at 10 µM in the Eurofins-Panlabs radioligand binding assay (Eurofins_assay_253010). On the set-up: ligand concentration 0.8 nM. Particulars: Compound concentration 10.0 uM.

Assay [8] concerns the target Adenosine Transporter (Cavia porcellus) (UniProt H0V4R7+H0UUG1+H0V3Z5). Briefly: (§1) Inhibition of Transporter, Adenosine at compound concentration of 10.0 uM in the Eurofins-Panlabs radioligand binding assay (Eurofins_assay_202000). In kind it is protein assay. The arrangement: ligand concentration 0.5 nM, non-specific ligand with concentration 5 uM Nitrobenzylthioinosine, incubation time 30 min, incubation temperature 25 C.

The target in the next assay is Adenosine Transporter (Cavia porcellus, UniProt H0V4R7+H0UUG1+H0V3Z5). The assay is described as §1. In kind it is protein assay. The arrangement: ligand concentration 0.5 nM, non-specific ligand with concentration 5 uM Nitrobenzylthioinosine, incubation time 30 min, incubation temperature 25 C.
Assay [9] has as its target Histamine H3 receptor (Homo sapiens) (UniProt Q9Y5N1). Nature of the assay: Histamine H3 Eurofins-Panlabs radioligand binding assay. Particulars: Compound concentration 10.0 uM.
The target in another assay is Caspase-3 (Homo sapiens) (UniProt P42574). Nature of the assay: Peptidase, CASP3 (Caspase 3) Eurofins-Panlabs enzyme assay. Particulars: Compound concentration 10.0 uM.
Assay [10] addresses Tyrosine 3-monooxygenase (Homo sapiens) (UniProt P07101). Nature of the assay: Tyrosine Hydroxylase Eurofins-Panlabs enzyme assay. Particulars: Rattus norvegicus; Compound concentration 10.0 uM. The arrangement: substrate with concentration.
Assay [11] has as its target Adrenomedullin receptor AM1; CALCRL/RAMP2 (Homo sapiens) (UniProt O60895+Q16602). Nature of the assay: Adrenomedullin AM1 Eurofins-Panlabs radioligand binding assay. In kind it is protein-complex assay. The note with it: Compound concentration 10.0 uM.
Assay [12] concerns the target C-X-C chemokine receptor type 4 (Homo sapiens) (UniProt P61073). Briefly: Chemokine CXCR4 Eurofins-Panlabs radioligand binding assay. On the set-up: ligand concentration 0.03 nM. The note with it: Compound concentration 10.0 uM.
For assay [13], the target named is Histamine H4 receptor (Homo sapiens) (UniProt Q9H3N8). Briefly: Histamine H4 Eurofins-Panlabs radioligand binding assay. The note with it: Compound concentration 10.0 uM.
Assay [14] deals with Melanin-concentrating hormone receptor 1 (Homo sapiens) (UniProt Q99705). Nature of the assay: Melanin-Concentrating Hormone MCH1 (SLC1) Eurofins-Panlabs radioligand binding assay. The note with it: Compound concentration 10.0 uM. The arrangement: ligand concentration 0.05 nM.
In assay [15] the target is Nociceptin receptor (Homo sapiens) (UniProt P41146). Briefly: Orphanin ORL1 Eurofins-Panlabs radioligand binding assay. Particulars: Compound concentration 10.0 uM.
Assay [16] deals with Peroxisome proliferator-activated receptor alpha (Homo sapiens) (UniProt Q07869). Nature of the assay: PPARalpha Eurofins-Panlabs radioligand binding assay. The note with it: Compound concentration 10.0 uM.
The target of assay [17] is Peroxisome proliferator-activated receptor gamma (Homo sapiens) (UniProt P37231). Briefly: PPARgamma Eurofins-Panlabs radioligand binding assay. On the set-up: ligand concentration 5 nM, non-specific ligand with concentration 0.5 µM L-797773, incubation time 18 h, incubation temperature 15 °C. The note with it: Compound concentration 10.0 uM.
The target of assay [18] is Vasopressin V1b receptor (Homo sapiens) (UniProt P47901). Nature of the assay: Inhibition of Vasopressin V1B at 10 µM in the Eurofins-Panlabs radioligand binding assay (Eurofins_assay_287560). On the set-up: ligand concentration 1 nM. The note with it: Compound concentration 10.0 uM.
In assay [19] the target is Vasopressin V2 receptor (Homo sapiens) (UniProt P30518). Briefly: Inhibition of Vasopressin V2 at 10 µM in the Eurofins-Panlabs radioligand binding assay (Eurofins_assay_287610). On the set-up: ligand concentration 4 nM. Particulars: Compound concentration 10.0 uM.
In assay [20] the target is Epidermal growth factor receptor (Homo sapiens) (UniProt P00533). Briefly: Protein Tyrosine Kinase, EGF Receptor Eurofins-Panlabs enzyme assay. The arrangement: substrate with concentration 10 µg/mL Poly(Glu:Tyr), incubation time 60 min, incubation temperature 25 °C. Particulars: Compound concentration 10.0 uM.
The species named for the next assay is Homo sapiens. Briefly: Cholecystokinin CCK2 (CCKB) Eurofins-Panlabs radioligand binding assay. The arrangement: ligand concentration 0.072 nM, non-specific ligand with concentration 1 µM Sincalide, incubation time 3 h, incubation temperature 25 °C. The note with it: Compound concentration 10.0 uM.
The target in assay [21] is Prostaglandin E2 receptor EP1 subtype (Homo sapiens) (UniProt P34995). Nature of the assay: Prostanoid EP1 Eurofins-Panlabs radioligand binding assay. The note with it: Compound concentration 10.0 uM.
The target in assay [22] is Prostaglandin F2-alpha receptor (Homo sapiens) (UniProt P43088). Briefly: Prostanoid FP Eurofins-Panlabs radioligand binding assay. On the set-up: ligand concentration 0.95 nM. The note with it: Compound concentration 10.0 uM.
Assay [23] has as its target T1, cAMP and cAMP-inhibited cGMP 3',5'-cyclic phosphodiesterase 10A. Briefly: Cell assay.
The target of assay [24] is Sodium-dependent serotonin transporter (Homo sapiens) (UniProt P31645). The note with it: Compound concentration 10.0 uM.
The target of assay [25] is Alpha-1D adrenergic receptor (Homo sapiens) (UniProt P25100). Particulars: Compound concentration 10.0 uM.
Assay [26] deals with Beta-1 adrenergic receptor (Homo sapiens) (UniProt P08588). Particulars: Compound concentration 10.0 uM.
Assay [27] concerns the target Glutamate NMDA receptor (Rattus norvegicus) (UniProt P35439+Q00959+Q00960+Q00961+Q62645+Q8VHN2+Q9R1M7). The note with it: Compound concentration 10.0 uM.
For assay [28], the target named is Sodium-dependent serotonin transporter (Homo sapiens) (UniProt P31645). The note with it: Compound concentration 10.0 uM. This is another data set of the same source.
In assay [29] the target is Acetylcholinesterase (Homo sapiens) (UniProt P22303). The note with it: Compound concentration 10.0 uM.
Assay [30] concerns the target Glutamate receptor 2 (Homo sapiens) (UniProt P42262). Particulars: Rattus norvegicus; Compound concentration 10.0 uM.

Calls of active or inactive are those of the source. The calls are words filed in the database; no cut-off is given here.

Sequence of Sodium-dependent serotonin transporter (Homo sapiens) (P31645 whole entry, looked up): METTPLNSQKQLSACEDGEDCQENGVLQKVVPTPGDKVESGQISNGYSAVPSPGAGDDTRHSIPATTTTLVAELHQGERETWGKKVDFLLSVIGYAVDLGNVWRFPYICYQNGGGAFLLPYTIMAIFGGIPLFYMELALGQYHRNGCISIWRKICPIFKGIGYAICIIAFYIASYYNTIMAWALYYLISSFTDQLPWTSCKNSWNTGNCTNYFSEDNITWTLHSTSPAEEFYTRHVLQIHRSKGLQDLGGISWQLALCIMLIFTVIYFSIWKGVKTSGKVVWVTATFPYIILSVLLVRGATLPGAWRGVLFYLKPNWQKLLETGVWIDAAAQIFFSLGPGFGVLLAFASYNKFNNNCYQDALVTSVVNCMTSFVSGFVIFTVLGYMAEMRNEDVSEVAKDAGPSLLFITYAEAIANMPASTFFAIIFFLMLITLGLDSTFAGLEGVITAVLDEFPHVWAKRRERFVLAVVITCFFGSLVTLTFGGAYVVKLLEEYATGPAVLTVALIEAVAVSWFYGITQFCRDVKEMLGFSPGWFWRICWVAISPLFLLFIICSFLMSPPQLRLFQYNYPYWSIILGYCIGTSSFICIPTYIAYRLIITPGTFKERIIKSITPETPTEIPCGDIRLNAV
T1 sequence (Q9Y233 whole entry): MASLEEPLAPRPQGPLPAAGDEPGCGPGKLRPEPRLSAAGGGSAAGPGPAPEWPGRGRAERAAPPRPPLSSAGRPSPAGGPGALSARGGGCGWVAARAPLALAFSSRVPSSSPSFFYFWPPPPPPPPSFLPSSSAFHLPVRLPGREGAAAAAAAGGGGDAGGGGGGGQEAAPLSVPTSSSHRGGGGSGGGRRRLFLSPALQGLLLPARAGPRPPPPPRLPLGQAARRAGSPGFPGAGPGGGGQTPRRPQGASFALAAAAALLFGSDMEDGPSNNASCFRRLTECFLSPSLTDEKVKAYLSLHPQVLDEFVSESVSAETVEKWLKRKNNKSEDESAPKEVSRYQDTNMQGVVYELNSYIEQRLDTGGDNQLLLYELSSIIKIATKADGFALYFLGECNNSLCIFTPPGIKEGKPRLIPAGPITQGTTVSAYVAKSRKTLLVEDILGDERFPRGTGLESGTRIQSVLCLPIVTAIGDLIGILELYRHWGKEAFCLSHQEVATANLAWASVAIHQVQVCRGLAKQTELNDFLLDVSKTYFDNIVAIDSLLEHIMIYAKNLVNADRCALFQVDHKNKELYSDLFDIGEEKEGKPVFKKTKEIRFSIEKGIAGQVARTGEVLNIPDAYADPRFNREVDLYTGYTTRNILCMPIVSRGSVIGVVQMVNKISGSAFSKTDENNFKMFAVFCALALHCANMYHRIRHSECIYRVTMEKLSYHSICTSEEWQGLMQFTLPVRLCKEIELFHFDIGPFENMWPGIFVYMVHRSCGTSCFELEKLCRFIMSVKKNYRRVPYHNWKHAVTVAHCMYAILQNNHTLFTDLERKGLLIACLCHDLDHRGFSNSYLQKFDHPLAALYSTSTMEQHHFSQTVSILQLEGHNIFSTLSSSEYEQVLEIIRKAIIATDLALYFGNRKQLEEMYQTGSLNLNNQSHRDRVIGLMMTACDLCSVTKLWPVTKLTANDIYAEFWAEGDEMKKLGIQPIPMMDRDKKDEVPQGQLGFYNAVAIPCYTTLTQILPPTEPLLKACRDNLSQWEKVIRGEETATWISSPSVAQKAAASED
Sequence of Prostaglandin F2-alpha receptor (Homo sapiens) (P43088 whole entry): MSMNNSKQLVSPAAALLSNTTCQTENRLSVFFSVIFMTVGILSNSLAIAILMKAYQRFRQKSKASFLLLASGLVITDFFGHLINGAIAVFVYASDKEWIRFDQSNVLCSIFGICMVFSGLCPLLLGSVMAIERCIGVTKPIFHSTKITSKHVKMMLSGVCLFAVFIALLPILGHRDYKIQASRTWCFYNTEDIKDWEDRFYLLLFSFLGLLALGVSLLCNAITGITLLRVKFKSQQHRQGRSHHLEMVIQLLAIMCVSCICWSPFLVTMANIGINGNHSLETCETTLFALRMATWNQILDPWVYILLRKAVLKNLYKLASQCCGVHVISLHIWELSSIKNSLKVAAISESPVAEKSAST
Sequence of Melanin-concentrating hormone receptor 1 (Homo sapiens) (Q99705 whole entry): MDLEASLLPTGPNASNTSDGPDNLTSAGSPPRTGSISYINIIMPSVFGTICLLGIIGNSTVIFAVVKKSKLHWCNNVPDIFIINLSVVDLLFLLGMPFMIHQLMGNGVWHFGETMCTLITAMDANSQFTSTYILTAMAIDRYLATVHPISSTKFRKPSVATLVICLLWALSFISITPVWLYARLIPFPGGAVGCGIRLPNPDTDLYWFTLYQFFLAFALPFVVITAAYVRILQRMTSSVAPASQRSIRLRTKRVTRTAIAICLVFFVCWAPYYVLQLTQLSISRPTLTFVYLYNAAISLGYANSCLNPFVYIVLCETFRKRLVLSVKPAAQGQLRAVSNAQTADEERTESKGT
Sequence of Glutamate receptor 2 (Homo sapiens) (P42262 whole entry): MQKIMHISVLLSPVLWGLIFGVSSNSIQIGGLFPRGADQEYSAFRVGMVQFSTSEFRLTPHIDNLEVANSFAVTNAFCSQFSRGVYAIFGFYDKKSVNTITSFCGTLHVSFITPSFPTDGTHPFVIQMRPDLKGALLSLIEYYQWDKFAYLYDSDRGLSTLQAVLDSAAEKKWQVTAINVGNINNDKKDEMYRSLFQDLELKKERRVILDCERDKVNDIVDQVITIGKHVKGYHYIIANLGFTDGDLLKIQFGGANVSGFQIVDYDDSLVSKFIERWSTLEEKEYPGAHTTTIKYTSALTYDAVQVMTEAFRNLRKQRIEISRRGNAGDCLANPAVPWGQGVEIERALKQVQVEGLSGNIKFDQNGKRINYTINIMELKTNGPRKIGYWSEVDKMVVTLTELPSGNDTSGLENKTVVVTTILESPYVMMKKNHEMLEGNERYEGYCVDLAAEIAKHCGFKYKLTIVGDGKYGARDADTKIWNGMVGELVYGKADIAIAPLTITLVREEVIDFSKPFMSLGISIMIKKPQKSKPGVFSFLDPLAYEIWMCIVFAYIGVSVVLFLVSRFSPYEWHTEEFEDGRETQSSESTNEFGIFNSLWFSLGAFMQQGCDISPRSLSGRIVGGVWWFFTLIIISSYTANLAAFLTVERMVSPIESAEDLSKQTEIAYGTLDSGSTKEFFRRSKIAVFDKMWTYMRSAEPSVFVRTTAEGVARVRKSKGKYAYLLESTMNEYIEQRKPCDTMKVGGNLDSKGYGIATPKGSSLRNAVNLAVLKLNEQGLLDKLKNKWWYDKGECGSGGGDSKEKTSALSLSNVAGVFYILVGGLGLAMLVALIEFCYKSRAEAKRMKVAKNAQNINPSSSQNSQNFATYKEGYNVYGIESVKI
Sequence of C-X-C chemokine receptor type 2 (Homo sapiens) (P25025 whole entry): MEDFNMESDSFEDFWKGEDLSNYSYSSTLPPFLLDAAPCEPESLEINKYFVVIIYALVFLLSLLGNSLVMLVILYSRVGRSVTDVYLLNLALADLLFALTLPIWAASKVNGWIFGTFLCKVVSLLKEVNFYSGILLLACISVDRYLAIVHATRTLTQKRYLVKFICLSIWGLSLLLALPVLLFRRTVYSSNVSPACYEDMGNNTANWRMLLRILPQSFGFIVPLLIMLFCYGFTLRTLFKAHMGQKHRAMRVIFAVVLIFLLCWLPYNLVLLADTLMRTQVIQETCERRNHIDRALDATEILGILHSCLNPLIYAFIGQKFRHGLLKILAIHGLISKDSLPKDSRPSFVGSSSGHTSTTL
Sequence of Vasopressin V2 receptor (Homo sapiens) (P30518 whole entry): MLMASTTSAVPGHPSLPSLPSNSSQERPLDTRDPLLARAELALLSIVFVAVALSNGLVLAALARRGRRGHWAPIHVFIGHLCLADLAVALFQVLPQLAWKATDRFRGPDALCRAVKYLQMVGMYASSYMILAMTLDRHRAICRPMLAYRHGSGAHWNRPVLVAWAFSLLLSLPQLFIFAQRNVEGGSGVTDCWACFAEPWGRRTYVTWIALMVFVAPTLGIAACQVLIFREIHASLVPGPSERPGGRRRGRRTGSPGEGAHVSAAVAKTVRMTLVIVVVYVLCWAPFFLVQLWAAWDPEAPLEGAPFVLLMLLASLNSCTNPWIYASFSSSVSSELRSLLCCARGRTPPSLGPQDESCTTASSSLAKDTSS
Sequence of Peroxisome proliferator-activated receptor gamma (Homo sapiens) (P37231 whole entry): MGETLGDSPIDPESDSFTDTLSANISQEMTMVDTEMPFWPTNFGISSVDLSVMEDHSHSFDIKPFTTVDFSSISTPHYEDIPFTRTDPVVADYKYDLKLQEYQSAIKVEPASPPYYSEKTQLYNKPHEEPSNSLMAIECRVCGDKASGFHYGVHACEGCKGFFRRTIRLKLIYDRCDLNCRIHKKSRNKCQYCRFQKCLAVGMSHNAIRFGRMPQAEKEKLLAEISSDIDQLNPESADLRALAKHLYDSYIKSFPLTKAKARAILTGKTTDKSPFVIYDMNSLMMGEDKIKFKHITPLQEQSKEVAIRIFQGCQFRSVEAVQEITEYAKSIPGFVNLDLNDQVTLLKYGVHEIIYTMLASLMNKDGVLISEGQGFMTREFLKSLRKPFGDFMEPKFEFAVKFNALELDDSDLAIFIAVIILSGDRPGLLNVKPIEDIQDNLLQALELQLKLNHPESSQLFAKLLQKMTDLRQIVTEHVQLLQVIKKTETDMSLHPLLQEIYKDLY
Sequence of Peroxisome proliferator-activated receptor alpha (Homo sapiens) (Q07869 whole entry): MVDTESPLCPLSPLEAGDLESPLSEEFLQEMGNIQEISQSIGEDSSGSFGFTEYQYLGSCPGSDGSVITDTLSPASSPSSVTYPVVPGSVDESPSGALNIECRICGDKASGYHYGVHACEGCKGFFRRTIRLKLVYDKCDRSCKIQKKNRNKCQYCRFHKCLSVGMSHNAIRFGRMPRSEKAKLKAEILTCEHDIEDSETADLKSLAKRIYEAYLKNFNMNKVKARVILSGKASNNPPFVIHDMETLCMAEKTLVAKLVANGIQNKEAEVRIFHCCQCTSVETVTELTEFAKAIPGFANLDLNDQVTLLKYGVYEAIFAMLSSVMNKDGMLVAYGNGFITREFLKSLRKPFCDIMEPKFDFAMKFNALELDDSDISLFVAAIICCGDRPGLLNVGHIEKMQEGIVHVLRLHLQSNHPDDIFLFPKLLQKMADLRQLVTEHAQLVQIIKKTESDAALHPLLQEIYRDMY

On to `CC(C)CC(=O)N1CCc2nc(-c3ccc(Br)cc3)nc(N(C)Cc3ccccc3)c2C1` [THPP-1-NC], for which the Ki – broadly, a measure of affinity in units of concentration, obtained from inhibition or displacement – in assay [1] is recorded as 522 nM (not active). Also, in assay [2], the residual activity – broadly, what remains of the control signal, in per cent – was 90%.
As for `COCCOc1nc(-c2ccc(Cl)nc2)nc2c1CN(C(=O)c1ncn3ccccc13)CC2` [THPP-1], the inhibition (as a rule, the change of the read-out against control, counted positive when it falls) in [3] was -3%; in assay [4], -4%; in assay [5] it was -4%; in the assay filed under Rattus norvegicus, 15%; in [6], 6%; in [7] it was 1%. The inhibition in [8] (Compound concentration 0.01 uM) is -6%; in assay [8] (Compound concentration 0.1 uM), 21%; in [8] (Compound concentration 1.0 uM), 40%; in assay [8] (Compound concentration 10.0 uM), 75%; in assay [9], -1%; on Caspase-3 (Homo sapiens), -1%. The inhibition is 4% in assay [10]; -6% in [11]; 4% in assay [12]; 1% in [13]; 4% in assay [14]; 5% in assay [15]. The inhibition in [16] was 4%; in [17] it was -4%; in assay [18] it was 5%; in [19], -2%; in [20] it was 6%; in the assay listed under Homo sapiens, -8%. The inhibition in assay [21] was -1%; in assay [22], 22%; in assay [24] it was 2.72%; in assay [25], -4.48%; in [26], -3%; in [27], 3%. Further, the inhibition in assay [28] is 2%; in assay [29], -1%; in [30] it was -10%. The results for the IC50 (at Adenosine Transporter; in assay [23]) were 1610 nM and 49 nM (active), respectively. For the same compound, the inhibitory constant (Ki) on Adenosine Transporter amounted to 550 nM.
